# System: Adult houseflies
# Experiment: Knock-down test on adult houseflies by spraying oil solution in a cubic chamber
# Assay type: in vivo, housefly (Musca domestica)
# Conditions: 0.7 ml of 0.00625% oil solution sprayed into 70 cm cubic chamber; 5 male and 5 female adult houseflies; counted up to 10 minutes after spraying
# Procedure: A solution of 0.00625 part of the present compound (1) in 10 parts of dichloromethane was mixed with 89.99375 parts of deodorized kerosene to obtain a 0.00625% oil solution.
# Adult houseflies (5 males and 5 females) were left in a cubic chamber (70 cm at each side). Into the chamber, 0.7 ml of 0.00625% oil solution of the present compound (1) prepared above was sprayed with a spray gun at a pressure of 8.8×10^4 Pa from a small window on the side of the chamber. Then, up to 10 minutes after spraying, the number of knocked-down insects was counted with time. From the results, a time required for knocking down 90% of the tested insects (KT90) was calculated.
# In addition, the same test was carried out that 5-benzyl-3-furylmethyl (1R)-cis-2,2-dimethyl-3-((E)-3-ethoxy-3-oxo-1-propenyl)cyclopropanecarboxylate represented by the formula:
# [drawing 6] (hereinafter, referred to as the comparative compound (A)), which is the compound described in GB-A-1413491 as compound P19/2; and 3-phenylbenzyl (1R)-cis-2,2-dimethyl-3-((E)-3-ethoxy-2-fluoro-3-oxo-1-propenyl)cyclopropanecarboxylate represented by the formula:
# [drawing 7] (hereinafter, referred to as the comparative compound (B)), which is the compound described in U.S. Pat. No. 4,489,093 as example 12 were used as comparative compounds (repeated twice).
row,Structure (SMILES),KT90 (time required for knocking down 90% of the tested insects) [min]
1,"CCOC(=O)/C=C/[C@H]1[C@@H](C(=O)OCc2coc(Cc3ccccc3)c2)C1(C)C [Comparative compound (A), 5-benzyl-3-furylmethyl (1R)-cis-2,2-dimethyl-3-((E)-3-ethoxy-3-oxo-1-propenyl)cyclopropanecarboxylate]",8.0
2,"CCOC(=O)/C(F)=C\[C@H]1[C@@H](C(=O)OCc2cccc(-c3ccccc3)c2)C1(C)C [Comparative compound (B), 3-phenylbenzyl (1R)-cis-2,2-dimethyl-3-((E)-3-ethoxy-2-fluoro-3-oxo-1-propenyl)cyclopropanecarboxylate]",8.9
3,"CCOC(=O)/C(F)=C\[C@H]1[C@@H](C(=O)OCc2coc(Cc3ccccc3)c2)C1(C)C [Present compound (1), 5-benzyl-3-furylmethyl (1R)-cis-2,2-dimethyl-3-((E)-3-ethoxy-2-fluoro-3-oxo-1-propenyl)cyclopropanecarboxylate]",2.9
